Holding throughout (assay type): functional, cell-based
One assay concerns HeLa. Kind of assay: Cytotoxicity against human HeLa cells assessed as cell viability after 72 hrs by MTT assay.
Assay [1] in a line: Cytotoxicity against human BGC803 cells assessed as cell viability after 72 hrs by MTT assay. As to conditions: BGC803, 72 h. A general note: Tetrazolium dyes change colour on reduction, which living cells bring about.
A further assay deals with MCF7. Description: Cytotoxicity against human MCF7 cells assessed as cell viability after 72 hrs by MTT assay. As to conditions: MCF7, 72 h.
The test system of another assay is HCT-8. Kind of assay: Cytotoxicity against human HCT8 cells assessed as cell viability after 72 hrs by MTT assay. The note with it: HCT-8, 72 h.
Another assay concerns KETR3. Description: Cytotoxicity against human Ketr3 cells assessed as cell viability after 72 hrs by MTT assay. As to conditions: KETR3, 72 h.
Another assay has as its system KB. Kind of assay: Cytotoxicity against human KB cells assessed as cell viability after 72 hrs by MTT assay.
Assay [2] is described as follows: Cytotoxicity against human HELF cells assessed as cell viability after 72 hrs by MTT assay.
A further assay has as its system A549. Description: Cytotoxicity against human A549 cells assessed as cell viability after 72 hrs by MTT assay. As to conditions: A549, 72 h.
The subject of a further assay is Bel-7402. Description: Cytotoxicity against human Bel7402 cells assessed as cell viability after 72 hrs by MTT assay. The note with it: Bel-7402, 72 h.
A further assay relates to A2780. Description: Cytotoxicity against human A2780 cells assessed as cell viability after 72 hrs by MTT assay. The note with it: A2780, 72 h.

Regarding `COC1=C(C)C(=O)C2=C(C1=O)[C@@H]1[C@@H]3CC4=C(C(=O)C(OC)=C(C)C4=O)[C@H](CNC(=O)/C=C/c4cccc(C(F)(F)F)c4)N3[C@@H](C#N)[C@H](C2)N1C`, the IC50 (in general, the concentration that inhibits the measured activity by half) in the assay on HeLa came out at 7.9 nM; in assay [1], 22.3 nM; in the assay on MCF7, 4.2 nM; in the assay on HCT-8 it was 43.3 nM; in the assay on KETR3, 28.9 nM; in the assay with KB it was 11.7 nM. In addition, the concentration for half-maximal inhibition (IC50) in assay [2] was more than 100 nM; in the assay on A549, 77.1 nM; with Bel-7402, 29.7 nM; in the assay with A2780, 39.8 nM.

With `COC1=C(C)C(=O)C2=C(C1=O)[C@@H]1[C@@H]3CC4=C(C(=O)C(OC)=C(C)C4=O)[C@H](CNC(=O)/C=C/c4ccnc5ccccc45)N3[C@@H](C#N)[C@H](C2)N1C`, the 50% inhibitory concentration (IC50) with HeLa amounted to 8.33 nM; in assay [1], 17.1 nM; with MCF7, 2.23 nM; with HCT-8, 18.2 nM; in the assay on KETR3 it was 11.5 nM; with KB it was 5.7 nM. The IC50 in [2] is 23.4 nM; with A549 it was 35.7 nM; in the assay with Bel-7402, 18.2 nM; in the assay on A2780, 17.5 nM.

For the compound `COC1=C(C)C(=O)C2=C(C1=O)[C@@H]1[C@@H]3CC4=C(C(=O)C(OC)=C(C)C4=O)[C@H](CNC(=O)/C=C/c4ccc(OC)cc4)N3[C@@H](C#N)[C@H](C2)N1C`, the IC50 in the assay on HeLa came out at 7.77 nM; in [1] it was 6.91 nM; with MCF7, 5.35 nM; with HCT-8, 46.7 nM; in the assay on KETR3, 11 nM; with KB, 9.04 nM. Moreover, the IC50 in assay [2] was 4.88 nM; in the assay with A549, 23.8 nM; with Bel-7402, 6.23 nM; in the assay on A2780 it was 14.4 nM.

As for `CCc1ccc(/C=C/C(=O)NC[C@H]2C3=C(C[C@H]4[C@H]5C6=C(C[C@@H]([C@H](C#N)N24)N5C)C(=O)C(C)=C(OC)C6=O)C(=O)C(C)=C(OC)C3=O)cc1`, the IC50 with HeLa was 8.68 nM; in assay [1], 21.2 nM; in the assay with MCF7, 18.5 nM; in the assay with HCT-8, more than 100 nM; in the assay with KETR3 it was 52.1 nM; in the assay with KB, 28.4 nM. Also, the IC50 in [2] was more than 100 nM; in the assay with A549, 96.7 nM; in the assay on Bel-7402 it was 24.3 nM; with A2780, 25.5 nM.

With `COC1=C(C)C(=O)C2=C(C1=O)[C@@H]1[C@@H]3CC4=C(C(=O)C(OC)=C(C)C4=O)[C@H](CNC(=O)/C=C/c4ccc(OC)c(OC)c4OC)N3[C@@H](C#N)[C@H](C2)N1C`, the IC50 with HeLa was determined as 3.85 nM; in [1], 6.27 nM; with MCF7, 5.44 nM; in the assay with HCT-8, 27.4 nM; in the assay with KETR3, 15.5 nM; in the assay on KB, 9.85 nM. For the same compound, the IC50 in [2] was more than 100 nM; in the assay with A549 it was 81.8 nM; in the assay with Bel-7402, 11.4 nM; with A2780 it was 33.7 nM.

On to `COC1=C(C)C(=O)C2=C(C1=O)[C@@H]1[C@@H]3CC4=C(C(=O)C(OC)=C(C)C4=O)[C@H](CNC(=O)/C=C/c4ccc(C(C)(C)C)cc4)N3[C@@H](C#N)[C@H](C2)N1C`, for which the IC50 is 31.2 nM with HeLa; 31 nM in assay [1]; 25.6 nM with MCF7; more than 100 nM in the assay with HCT-8; more than 100 nM in the assay with KETR3; 26.3 nM in the assay on KB. The IC50 (in assay [2]; with A549; with Bel-7402) was more than 100 nM each time.

Turning to `COC1=C(C)C(=O)C2=C(C1=O)[C@@H]1[C@@H]3CC4=C(C(=O)C(OC)=C(C)C4=O)[C@H](CNC(=O)CNC(=O)c4ccccc4)N3[C@@H](C#N)[C@H](C2)N1C`, the IC50 in the assay on HeLa was found to be 10.7 nM; in assay [1], 27.7 nM; in the assay with MCF7, 39.5 nM; in the assay with HCT-8, 58.5 nM; in the assay on KETR3, 23.6 nM; with KB, 16.9 nM. In addition, the IC50 in assay [2] was found to be 16.7 nM; in the assay on A549, 10 nM; in the assay with Bel-7402 it was 22.4 nM; in the assay with A2780, 43.9 nM.

As to `COC1=C(C)C(=O)C2=C(C1=O)[C@@H]1[C@@H]3CC4=C(C(=O)C(OC)=C(C)C4=O)[C@H](CNC(=O)OC(C)(C)C)N3[C@@H](C#N)[C@H](C2)N1C`, the IC50 is 7.41 nM in the assay on HeLa; 66.2 nM in assay [1]; 8.89 nM in the assay on MCF7; more than 100 nM in the assay with HCT-8; 12.9 nM with KETR3; 29.4 nM in the assay on KB. Also, the IC50 stood at 18.4 nM in assay [2], 34.3 nM with A549, 5.38 nM in the assay with Bel-7402 and 22.7 nM in the assay with A2780.

`COC1=C(C)C(=O)C2=C(C1=O)[C@@H]1[C@@H]3CC4=C(C(=O)C(OC)=C(C)C4=O)[C@H](CNC(=O)c4cc(OC)c(OC)c(OC)c4)N3[C@@H](C#N)[C@H](C2)N1C`: the half-maximal inhibitory concentration (IC50) in the assay with HeLa is 2.52 nM; in [1], 4.19 nM; in the assay on MCF7, 1.13 nM; with HCT-8, 14.9 nM; with KETR3 it was 3.63 nM; in the assay on KB, 1.27 nM. The IC50 in [2] was 3.38 nM; with A549, 18.8 nM; in the assay with Bel-7402, 3.03 nM; in the assay with A2780, 3.67 nM.

Take `COC1=C(C)C(=O)C2=C(C1=O)[C@@H]1[C@@H]3CC4=C(C(=O)C(OC)=C(C)C4=O)[C@H](CNC(=O)c4cccc(C(F)(F)F)c4)N3[C@@H](C#N)[C@H](C2)N1C`: the IC50 was 43.2 nM in the assay with HeLa; 58.5 nM in [1]; 26.1 nM in the assay with MCF7; more than 100 nM in the assay on HCT-8; 30.6 nM in the assay with KETR3; 53.9 nM in the assay on KB. For the same compound, the IC50 in assay [2] is 25.7 nM; in the assay with A549 it was more than 100 nM; in the assay with Bel-7402, 21 nM; with A2780 it was 47.1 nM.

Turning to `COC1=C(C)C(=O)C2=C(C1=O)[C@@H]1[C@@H]3CC4=C(C(=O)C(OC)=C(C)C4=O)[C@H](CNC(=O)c4ccc5c(c4)OCO5)N3[C@@H](C#N)[C@H](C2)N1C`, the IC50 with HeLa came out at 3.34 nM; in assay [1] it was 20 nM; in the assay with MCF7 it was 4.79 nM; with HCT-8, 21.1 nM; in the assay with KETR3, 6.88 nM; in the assay with KB it was 3.94 nM. The IC50 in assay [2] came to 2.18 nM; in the assay on A549, 69 nM; with Bel-7402 it was 2.02 nM; in the assay on A2780 it was 5.11 nM.

For `COC1=C(C)C(=O)C2=C(C1=O)[C@@H]1[C@@H]3CC4=C(C(=O)C(OC)=C(C)C4=O)[C@H](CNC(=O)c4cc(Br)ccc4Cl)N3[C@@H](C#N)[C@H](C2)N1C`, the IC50 with HeLa was more than 100 nM; in [1], 66.2 nM; with HCT-8, more than 100 nM.

Take `COC1=C(C)C(=O)C2=C(C1=O)[C@@H]1[C@@H]3CC4=C(C(=O)C(OC)=C(C)C4=O)[C@H](CNC(=O)c4ccc5ccccc5n4)N3[C@@H](C#N)[C@H](C2)N1C`: the IC50 was found to be 9.51 nM with HeLa; 21.5 nM in assay [1]; 14.9 nM in the assay with MCF7; 43.4 nM in the assay on HCT-8; 69.9 nM in the assay on KETR3; 16.6 nM in the assay with KB. Also, the concentration for half-maximal inhibition (IC50) stood at 19.8 nM in [2], 65.3 nM with A549, 23.7 nM in the assay with Bel-7402 and 29.6 nM in the assay with A2780.

Take `COC1=C(C)C(=O)C2=C(C1=O)[C@@H]1[C@@H]3CC4=C(C(=O)C(OC)=C(C)C4=O)[C@H](CNC(=O)c4cc5ccccc5[nH]4)N3[C@@H](C#N)[C@H](C2)N1C`: the IC50 stood at 5.29 nM with HeLa; 26.3 nM in assay [1]; 22.9 nM with MCF7; 90.5 nM in the assay on HCT-8; 19.7 nM with KETR3; 14.9 nM with KB. Moreover, the IC50 in assay [2] came to 17.5 nM; in the assay on A549 it was 35 nM; in the assay on Bel-7402 it was 11.5 nM; in the assay on A2780, 11.2 nM.

Regarding `COC1=C(C)C(=O)C2=C(C1=O)[C@@H]1[C@@H]3CC4=C(C(=O)C(OC)=C(C)C4=O)[C@H](CNC(=O)c4ccco4)N3[C@@H](C#N)[C@H](C2)N1C`, the IC50 with HeLa worked out at 2.58 nM; in [1] it was 16 nM; in the assay on MCF7, 15.3 nM; with HCT-8, 12.4 nM; in the assay on KETR3, 3.01 nM; in the assay on KB, 3.55 nM. Further, the IC50 in assay [2] amounted to 1.68 nM; in the assay on A549, 0.95 nM; in the assay on Bel-7402, 1.22 nM; with A2780, 3.87 nM.

Regarding `COC1=C(C)C(=O)C2=C(C1=O)[C@@H]1[C@@H]3CC4=C(C(=O)C(OC)=C(C)C4=O)[C@H](CNC(=O)c4ccccn4)N3[C@@H](C#N)[C@H](C2)N1C`, the IC50 in the assay with HeLa is 7.27 nM; in [1] it was 32.1 nM; in the assay on MCF7, 15.6 nM; with HCT-8 it was 22.1 nM; in the assay with KETR3, 15.1 nM; with KB, 9.17 nM. In addition, the IC50 was 6.57 nM in [2], 30 nM in the assay on A549, 3.8 nM in the assay with Bel-7402 and 11.9 nM in the assay with A2780.

For `COC1=C(C)C(=O)C2=C(C1=O)[C@@H]1[C@@H]3CC4=C(C(=O)C(OC)=C(C)C4=O)[C@H](CNC(=O)c4cccs4)N3[C@@H](C#N)[C@H](C2)N1C`, the IC50 was 17.4 nM in the assay on HeLa; 4.19 nM in assay [1]; 45.2 nM with MCF7; more than 100 nM in the assay with HCT-8; 37.3 nM in the assay on KETR3; 17.5 nM in the assay on KB. Moreover, the half-inhibitory concentration (IC50) in assay [2] is 27.2 nM; with A549, more than 100 nM; with Bel-7402 it was 16.4 nM; with A2780, 27.4 nM.

Source of the values: ChEMBL document CHEMBL1944637, “Asymmetric synthesis and cytotoxicity of (-)-saframycin A analogues” (Eur J Med Chem, 2012).
